Values joined by “and” are separate entries in the source; they are usually repeats but may differ in a detail not shown here. Equal values may be shown once. Toxic doses and inconclusive results are not listed. How the source made its calls: active means survival T/C of 150% or more; inactive means T/C below 125% in these data.
Test system: B6C3F1 mice, ip Sarcoma M5076, median survival T/C
Test: NCI In Vivo Anticancer Drug Screen. Data for tumor model Sarcoma M5076 (intraperitoneal) in B6C3F1 mice
Conditions: endpoint: median survival time, higher = longer survival
Summary of the method: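 Mice carrying the transplanted tumour received compound treatment. Survival was recorded, and each value is the treated-group measurement divided by that of the vehicle-dosed control group.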

[1] = dose: 31.25 mg/kg/injection, schedule: Q04DX004 (ip), vehicle: saline with Tween-80
[2] = dose: 62.5 mg/kg/injection, schedule: Q04DX004 (ip), vehicle: saline with Tween-80
[3] = dose: 125.0 mg/kg/injection, schedule: Q04DX004 (ip), vehicle: saline with Tween-80
[4] = dose: 50.0 mg/kg/injection, schedule: Q04DX004 (ip), vehicle: saline with Tween-80
[5] = dose: 100.0 mg/kg/injection, schedule: Q04DX004 (ip), vehicle: saline with Tween-80
[6] = dose: 200.0 mg/kg/injection, schedule: Q04DX004 (ip), vehicle: saline with Tween-80
[7] = dose: 400.0 mg/kg/injection, schedule: Q04DX004 (ip), vehicle: saline with Tween-80
[8] = dose: 37.5 mg/kg/injection, schedule: Q04DX004 (ip), vehicle: saline with Tween-80
[9] = dose: 75.0 mg/kg/injection, schedule: Q04DX004 (ip), vehicle: saline with Tween-80
[10] = dose: 150.0 mg/kg/injection, schedule: Q04DX004 (ip), vehicle: saline with Tween-80
[11] = dose: 25.0 mg/kg/injection, schedule: Q04DX004 (ip), vehicle: saline with Tween-80
[12] = dose: 50.0 mg/kg/injection, schedule: Q04DX004 (ip), vehicle: Klucel (hydroxypropylcellulose) (HPC)
[13] = dose: 100.0 mg/kg/injection, schedule: Q04DX004 (ip), vehicle: Klucel (hydroxypropylcellulose) (HPC)
[14] = dose: 200.0 mg/kg/injection, schedule: Q04DX004 (ip), vehicle: Klucel (hydroxypropylcellulose) (HPC)

Measured: T/C

NC(=O)C(N)C(F)c1ccccc1 (configuration not stated)
inactive: [1] 100 % of control | [2] 116 % of control | [3] 93 % of control | dose: 250.0 mg/kg/injection, schedule: Q04DX004 (ip), vehicle: saline with Tween-80 96 % of control

COc1ccc(-n2cc[n+](C)c2/C=N\O)cc1
inactive: [1] 101 % of control | [2] 94 % of control | [3] 114 % of control

CCC/C=C/C=C/C(=O)OC1/C(=C/C(=O)OC)CC2CC(C(C)O)OC(=O)CC(O)CC3CC(OC(C)=O)C(C)(C)C(O)(CC4C/C(=C/C(=O)OC)CC(/C=C/C(C)(C)C1(O)O2)O4)O3 (configuration not stated)
inactive: dose: 10.0 micrograms/kg/injection, schedule: Q01DX009 (ip), vehicle: saline 102 % of control | dose: 20.0 micrograms/kg/injection, schedule: Q01DX009 (ip), vehicle: saline 104 % of control | dose: 40.0 micrograms/kg/injection, schedule: Q01DX009 (ip), vehicle: saline 107 % of control | dose: 80.0 micrograms/kg/injection, schedule: Q01DX009 (ip), vehicle: saline 109 % of control

COc1ccccc1N=C1SCC(=O)N1Cc1ccco1
inactive: [4] 110 % of control | [5] 122 % of control | [6] 101 % of control | [7] 98 % of control | dose: 800.0 mg/kg/injection, schedule: Q04DX004 (ip), vehicle: saline with Tween-80 102 % of control

COC(=O)C12OCC34C(CC5C(C)C6=CC(=O)OC6=CC5(C)C3C(O)C1O)OC(=O)C(O)C24 (configuration not stated)
inactive: dose: 0.25 mg/kg/injection, schedule: Q04DX003 (ip), vehicle: Klucel (hydroxypropylcellulose) (HPC) 107 % of control | dose: 0.43 mg/kg/injection, schedule: Q04DX003 (ip), vehicle: Klucel (hydroxypropylcellulose) (HPC) 107 % of control | dose: 0.5 mg/kg/injection, schedule: Q04DX004 (ip), vehicle: Klucel (hydroxypropylcellulose) (HPC) 111 % of control and 113 % of control | dose: 0.72 mg/kg/injection, schedule: Q04DX003 (ip), vehicle: Klucel (hydroxypropylcellulose) (HPC) 103 % of control | dose: 1.0 mg/kg/injection, schedule: Q04DX004 (ip), vehicle: Klucel (hydroxypropylcellulose) (HPC) 116 % of control and 122 % of control | dose: 1.2 mg/kg/injection, schedule: Q04DX003 (ip), vehicle: Klucel (hydroxypropylcellulose) (HPC) 110 % of control | dose: 2.0 mg/kg/injection, schedule: Q04DX003 (ip), vehicle: Klucel (hydroxypropylcellulose) (HPC) 112 % of control | dose: 2.0 mg/kg/injection, schedule: Q04DX004 (ip), vehicle: Klucel (hydroxypropylcellulose) (HPC) 123 % of control | dose: 4.0 mg/kg/injection, schedule: Q04DX004 (ip), vehicle: Klucel (hydroxypropylcellulose) (HPC) 116 % of control

Cc1ccc(/C=C2/N=C([Se])N(C)C2=O)cc1
inactive: [8] 124 % of control | [9] 98 % of control | [10] 89 % of control

COc1ccc(CCN2C(=O)C(=O)N(c3cccc4c(N5C(=O)C(=O)N(CCc6ccc(OC)c(OC)c6)C5=O)cccc34)C2=O)cc1OC
inactive: dose: 18.75 mg/kg/injection, schedule: Q04DX004 (ip), vehicle: Klucel (hydroxypropylcellulose) (HPC) 94 % of control | dose: 37.5 mg/kg/injection, schedule: Q04DX004 (ip), vehicle: Klucel (hydroxypropylcellulose) (HPC) 99 % of control | dose: 75.0 mg/kg/injection, schedule: Q04DX004 (ip), vehicle: Klucel (hydroxypropylcellulose) (HPC) 99 % of control | dose: 150.0 mg/kg/injection, schedule: Q04DX004 (ip), vehicle: Klucel (hydroxypropylcellulose) (HPC) 105 % of control

c1ccc2c(c1)-c1ccccc1C1NC21 (configuration not stated)
inactive: dose: 18.75 mg/kg/injection, schedule: Q04DX004 (ip), vehicle: saline with Tween-80 93 % of control | [8] 98 % of control | [9] 94 % of control | [10] 96 % of control | dose: 300.0 mg/kg/injection, schedule: Q04DX004 (ip), vehicle: saline with Tween-80 102 % of control

CN(C)CCNC1=CC(=O)c2ccccc2C1=O
inactive: dose: 50.0 mg/kg/injection, schedule: Q04DX004 (ip), vehicle: distilled water + Tween-80 101 % of control | dose: 100.0 mg/kg/injection, schedule: Q04DX004 (ip), vehicle: distilled water + Tween-80 101 % of control

O=C(O)c1cccc2c1ccc1ccccc12
inactive: dose: 4.0 mg/kg/injection, schedule: Q04DX004 (ip), vehicle: saline with Tween-80 109 % of control | dose: 8.0 mg/kg/injection, schedule: Q04DX004 (ip), vehicle: saline with Tween-80 102 % of control | dose: 8.0 mg/kg/injection, schedule: Q04DX005 (ip), vehicle: saline 98 % of control | dose: 16.0 mg/kg/injection, schedule: Q04DX004 (ip), vehicle: saline with Tween-80 107 % of control | dose: 16.0 mg/kg/injection, schedule: Q04DX005 (ip), vehicle: saline 93 % of control | dose: 32.0 mg/kg/injection, schedule: Q04DX004 (ip), vehicle: saline with Tween-80 105 % of control | dose: 32.0 mg/kg/injection, schedule: Q04DX005 (ip), vehicle: saline 96 % of control | dose: 64.0 mg/kg/injection, schedule: Q04DX004 (ip), vehicle: saline with Tween-80 103 % of control | dose: 64.0 mg/kg/injection, schedule: Q04DX005 (ip), vehicle: saline 94 % of control | dose: 128.0 mg/kg/injection, schedule: Q04DX005 (ip), vehicle: saline 96 % of control

Clc1nc2cc3c(cc2n2cccc12)oc1ccccc13
inactive: [11] 93 % of control | [4] 95 % of control | [5] 94 % of control | [6] 86 % of control | [7] 86 % of control

O=c1[nH]cnc2c1cnn2CN1CCOCC1
inactive: dose: 25.0 mg/kg/injection, schedule: Q04DX004 (ip), vehicle: Klucel (hydroxypropylcellulose) (HPC) 99 % of control | [12] 101 % of control | [13] 98 % of control | [14] 112 % of control

Cc1ccc(C2C(C#N)C(=O)NC(=O)C2C#N)cc1 (configuration not stated)
inactive: [12] 99 % of control | [13] 99 % of control | [14] 86 % of control

O=C1C(=O)N(c2ccccc2Cl)C(=O)N1Cc1ccccc1
inactive: dose: 43.75 mg/kg/injection, schedule: Q04DX004 (ip), vehicle: Klucel (hydroxypropylcellulose) (HPC) 102 % of control | dose: 87.5 mg/kg/injection, schedule: Q04DX004 (ip), vehicle: Klucel (hydroxypropylcellulose) (HPC) 98 % of control | dose: 175.0 mg/kg/injection, schedule: Q04DX004 (ip), vehicle: Klucel (hydroxypropylcellulose) (HPC) 109 % of control | dose: 350.0 mg/kg/injection, schedule: Q04DX004 (ip), vehicle: Klucel (hydroxypropylcellulose) (HPC) 94 % of control | dose: 700.0 mg/kg/injection, schedule: Q04DX004 (ip), vehicle: Klucel (hydroxypropylcellulose) (HPC) 93 % of control

CN1C(=O)C(=O)N(Cc2ccco2)C1=O
inactive: dose: 31.25 mg/kg/injection, schedule: Q04DX004 (ip), vehicle: Klucel (hydroxypropylcellulose) (HPC) 106 % of control | dose: 62.5 mg/kg/injection, schedule: Q04DX004 (ip), vehicle: Klucel (hydroxypropylcellulose) (HPC) 106 % of control | dose: 125.0 mg/kg/injection, schedule: Q04DX004 (ip), vehicle: Klucel (hydroxypropylcellulose) (HPC) 99 % of control | dose: 250.0 mg/kg/injection, schedule: Q04DX004 (ip), vehicle: Klucel (hydroxypropylcellulose) (HPC) 97 % of control | dose: 500.0 mg/kg/injection, schedule: Q04DX004 (ip), vehicle: Klucel (hydroxypropylcellulose) (HPC) 100 % of control

CCCC1CCC(=C2C(=O)CCC2=O)O1 (configuration not stated)
inactive: [11] 101 % of control | [4] 95 % of control | [5] 96 % of control

NC(=S)N/N=C/c1ncccc1O
inactive: dose: 50.0 mg/kg/injection, schedule: Q04DX004 (ip), vehicle: suspension in saline 103 % of control | dose: 100.0 mg/kg/injection, schedule: Q04DX004 (ip), vehicle: suspension in saline 101 % of control | dose: 200.0 mg/kg/injection, schedule: Q04DX004 (ip), vehicle: suspension in saline 101 % of control | dose: 400.0 mg/kg/injection, schedule: Q04DX004 (ip), vehicle: suspension in saline 102 % of control

C/C=C/C(C)C1OC1(C)C(O)C1COC(=O)C(O)C(OC)C(C)C(=O)C(C)C(O)/C(C)=C/C(C)C(=O)CC(O)C(C)C1=O (configuration not stated)
inactive: dose: 2.5 micrograms/kg/injection, schedule: Q04DX004 (ip), vehicle: saline 97 % of control | dose: 5.0 micrograms/kg/injection, schedule: Q04DX004 (ip), vehicle: saline 91 % of control | dose: 10.0 micrograms/kg/injection, schedule: Q04DX004 (ip), vehicle: saline 102 % of control | dose: 20.0 micrograms/kg/injection, schedule: Q04DX004 (ip), vehicle: saline 96 % of control

Source: PubChem BioAssay AID292 (DTP/NCI, 2004)
